Earlier results as cited in patent US20120141587A1, “COMPOSITIONS AND METHODS FOR TREATMENT OR PREVENTION OF POST-OPERATIVE ORGAN OR TISSUE INFLAMMATION” (priority 2009, published 2012).

Tests used:
[1] = test system: inducible atrial flutter; settings: oral; canine sterile pericarditis model; Goldstein et al. 2007
[2] = test system: atrial fibrillation; settings: instilled into a canine's pericardial sac; Ayers et al. 1996

| Compound | effect on inducible atrial flutter [1] | effect on atrial fibrillation [2] |
| --- | --- | --- |
| C[C@]12C=CC(=O)C=C1CC[C@@H]1[C@@H]2C(=O)C[C@@]2(C)[C@H]1CC[C@]2(O)C(=O)CO [prednisone] | prevent inducible atrial flutter |  |
| CCCCc1oc2ccccc2c1C(=O)c1cc(I)c(OCCN(CC)CC)c(I)c1 [amiodarone] |  | effectiveness in suppressing atrial fibrillation |
